Experimental data taken from ChEMBL document CHEMBL1641470, “New azoles with antifungal activity: Design, synthesis, and molecular docking” (2011).
Values after ≈ are worked out from the molar mass of the structure shown.

How the values were obtained:
Format in all cases: functional
Aspergillus fumigatus = assay: Antifungal activity against Aspergillus fumigatus by broth microdilution method
Candida albicans = assay: Antifungal activity against Candida albicans ATCC Y0109 after 24 hrs by broth microdilution method
Nannizzia gypsea = assay: Antifungal activity against Microsporum gypseum by broth microdilution method
Cryptococcus neoformans = assay: Antifungal activity against Cryptococcus neoformans ATCC BLS108 after 72 hrs by broth microdilution method
Trichophyton rubrum = assay: Antifungal activity against Trichophyton rubrum by broth microdilution method
Candida tropicalis = assay: Antifungal activity against Candida tropicalis by broth microdilution method
Candida parapsilosis = assay: Antifungal activity against Candida parapsilosis by broth microdilution method; conditions: Lodderomyces parapsilosis
Fusarium = assay: Antifungal activity against Fusarium by broth microdilution method

## O=C(/C=C/c1ccc(Br)cc1)Nc1ccc(N2CCN(CC(O)(Cn3cncn3)c3ccc(F)cc3F)CC2)cc1 (stereo not drawn)
Aspergillus fumigatus
  MIC80: 4 µg/mL (≈ 6.42 µM)
Candida albicans
  MIC80: 0.0625 µg/mL (≈ 0.1 µM)
Nannizzia gypsea
  MIC80: 0.25 µg/mL (≈ 0.401 µM)
Cryptococcus neoformans
  MIC80: 0.25 µg/mL (≈ 0.401 µM)
Trichophyton rubrum
  MIC80: 0.0156 µg/mL (≈ 0.025 µM)
Candida tropicalis
  MIC80: 0.25 µg/mL (≈ 0.401 µM)
Candida parapsilosis
  MIC80: 0.25 µg/mL (≈ 0.401 µM)
Fusarium
  MIC80: 1 µg/mL (≈ 1.6 µM)

## OC(Cn1cncn1)(Cn1cncn1)c1ccc(F)cc1F [FLUCONAZOLE]
Aspergillus fumigatus
  MIC80: 64 µg/mL (≈ 209 µM)
Candida albicans
  MIC80: 4 µg/mL (≈ 13.1 µM)
Nannizzia gypsea
  MIC80: 0.25 µg/mL (≈ 0.816 µM)
Cryptococcus neoformans
  MIC80: 1 µg/mL (≈ 3.27 µM)
Trichophyton rubrum
  MIC80: 0.25 µg/mL (≈ 0.816 µM)
Candida tropicalis
  MIC80: 1 µg/mL (≈ 3.27 µM)
Candida parapsilosis
  MIC80: 1 µg/mL (≈ 3.27 µM)
Fusarium
  MIC80: 16 µg/mL (≈ 52.2 µM)

## COc1ccc(OC)c(/C=C/C(=O)Nc2ccc(N3CCN(CC(O)(Cn4cncn4)c4ccc(F)cc4F)CC3)cc2)c1 (stereo not drawn)
Aspergillus fumigatus
  MIC80: > 64 µg/mL
Candida albicans
  MIC80: 0.0156 µg/mL (≈ 0.0258 µM)
Nannizzia gypsea
  MIC80: 1 µg/mL (≈ 1.65 µM)
Cryptococcus neoformans
  MIC80: 0.25 µg/mL (≈ 0.413 µM)
Trichophyton rubrum
  MIC80: 0.25 µg/mL (≈ 0.413 µM)
Candida tropicalis
  MIC80: 0.0625 µg/mL (≈ 0.103 µM)
Candida parapsilosis
  MIC80: 0.25 µg/mL (≈ 0.413 µM)
Fusarium
  MIC80: 4 µg/mL (≈ 6.62 µM)

## COc1ccc(/C=C/C(=O)Nc2ccc(N3CCN(CC(O)(Cn4cncn4)c4ccc(F)cc4F)CC3)cc2)cc1OC (stereo not drawn)
Aspergillus fumigatus
  MIC80: 4 µg/mL (≈ 6.62 µM)
Candida albicans
  MIC80: 0.0156 µg/mL (≈ 0.0258 µM)
Nannizzia gypsea
  MIC80: 0.25 µg/mL (≈ 0.413 µM)
Cryptococcus neoformans
  MIC80: 0.25 µg/mL (≈ 0.413 µM)
Trichophyton rubrum
  MIC80: 0.25 µg/mL (≈ 0.413 µM)
Candida tropicalis
  MIC80: 0.0625 µg/mL (≈ 0.103 µM)
Candida parapsilosis
  MIC80: 0.0625 µg/mL (≈ 0.103 µM)
Fusarium
  MIC80: 1 µg/mL (≈ 1.65 µM)

## O=C(/C=C/c1cccc(Cl)c1)Nc1ccc(N2CCN(CC(O)(Cn3cncn3)c3ccc(F)cc3F)CC2)c(F)c1 (stereo not drawn)
Aspergillus fumigatus
  MIC80: 1 µg/mL (≈ 1.67 µM)
Candida albicans
  MIC80: 1 µg/mL (≈ 1.67 µM)
Nannizzia gypsea
  MIC80: 0.0625 µg/mL (≈ 0.105 µM)
Cryptococcus neoformans
  MIC80: 0.25 µg/mL (≈ 0.419 µM)
Trichophyton rubrum
  MIC80: 0.25 µg/mL (≈ 0.419 µM)
Candida tropicalis
  MIC80: 0.0625 µg/mL (≈ 0.105 µM)
Candida parapsilosis
  MIC80: 0.25 µg/mL (≈ 0.419 µM)
Fusarium
  MIC80: 1 µg/mL (≈ 1.67 µM)

## C[C@@H](c1ncncc1F)[C@](O)(Cn1cncn1)c1ccc(F)cc1F [VORICONAZOLE]
Aspergillus fumigatus
  MIC80: > 64 µg/mL
Candida albicans
  MIC80: 0.0152 µg/mL (≈ 0.0435 µM)
Nannizzia gypsea
  MIC80: 0.0039 µg/mL (≈ 0.0112 µM)
Cryptococcus neoformans
  MIC80: 0.0152 µg/mL (≈ 0.0435 µM)
Trichophyton rubrum
  MIC80: 0.0039 µg/mL (≈ 0.0112 µM)
Candida tropicalis
  MIC80: 0.25 µg/mL (≈ 0.716 µM)
Candida parapsilosis
  MIC80: 1 µg/mL (≈ 2.86 µM)
Fusarium
  MIC80: 0.0152 µg/mL (≈ 0.0435 µM)

## Cc1ccc(/C=C/C(=O)Nc2ccc(N3CCN(CC(O)(Cn4cncn4)c4ccc(F)cc4F)CC3)c(F)c2)cc1 (stereo not drawn)
Aspergillus fumigatus
  MIC80: 1 µg/mL (≈ 1.73 µM)
Candida albicans
  MIC80: 0.25 µg/mL (≈ 0.434 µM)
Nannizzia gypsea
  MIC80: 0.25 µg/mL (≈ 0.434 µM)
Cryptococcus neoformans
  MIC80: 4 µg/mL (≈ 6.94 µM)
Trichophyton rubrum
  MIC80: 0.25 µg/mL (≈ 0.434 µM)
Candida tropicalis
  MIC80: 0.0625 µg/mL (≈ 0.108 µM)
Candida parapsilosis
  MIC80: 1 µg/mL (≈ 1.73 µM)
Fusarium
  MIC80: 1 µg/mL (≈ 1.73 µM)

## COc1ccc(/C=C/C(=O)Nc2ccc(N3CCN(CC(O)(Cn4cncn4)c4ccc(F)cc4F)CC3)c(F)c2)cc1OC (stereo not drawn)
Aspergillus fumigatus
  MIC80: > 64 µg/mL
Candida albicans
  MIC80: 0.25 µg/mL (≈ 0.402 µM)
Nannizzia gypsea
  MIC80: 0.25 µg/mL (≈ 0.402 µM)
Cryptococcus neoformans
  MIC80: 1 µg/mL (≈ 1.61 µM)
Trichophyton rubrum
  MIC80: 4 µg/mL (≈ 6.42 µM)
Candida tropicalis
  MIC80: 1 µg/mL (≈ 1.61 µM)
Candida parapsilosis
  MIC80: 0.25 µg/mL (≈ 0.402 µM)
Fusarium
  MIC80: 4 µg/mL (≈ 6.42 µM)

## O=C(/C=C/c1ccccc1F)Nc1ccc(N2CCN(CC(O)(Cn3cncn3)c3ccc(F)cc3F)CC2)cc1 (stereo not drawn)
Aspergillus fumigatus
  MIC80: > 64 µg/mL
Candida albicans
  MIC80: 0.0039 µg/mL (≈ 0.00693 µM)
Nannizzia gypsea
  MIC80: 0.0625 µg/mL (≈ 0.111 µM)
Cryptococcus neoformans
  MIC80: 0.0625 µg/mL (≈ 0.111 µM)
Trichophyton rubrum
  MIC80: 0.25 µg/mL (≈ 0.444 µM)
Candida tropicalis
  MIC80: 0.0156 µg/mL (≈ 0.0277 µM)
Candida parapsilosis
  MIC80: 0.0625 µg/mL (≈ 0.111 µM)
Fusarium
  MIC80: 1 µg/mL (≈ 1.78 µM)

## O=C(/C=C/c1cccc([N+](=O)[O-])c1)Nc1ccc(N2CCN(CC(O)(Cn3cncn3)c3ccc(F)cc3F)CC2)c(F)c1 (stereo not drawn)
Aspergillus fumigatus
  MIC80: > 64 µg/mL
Candida albicans
  MIC80: 0.0039 µg/mL (≈ 0.00642 µM)
Nannizzia gypsea
  MIC80: 0.0625 µg/mL (≈ 0.103 µM)
Cryptococcus neoformans
  MIC80: 0.0625 µg/mL (≈ 0.103 µM)
Trichophyton rubrum
  MIC80: 0.0625 µg/mL (≈ 0.103 µM)
Candida tropicalis
  MIC80: 0.0625 µg/mL (≈ 0.103 µM)
Candida parapsilosis
  MIC80: 0.0625 µg/mL (≈ 0.103 µM)
Fusarium
  MIC80: 0.0625 µg/mL (≈ 0.103 µM)

## O=C(/C=C/c1ccc([N+](=O)[O-])cc1)Nc1ccc(N2CCN(CC(O)(Cn3cncn3)c3ccc(F)cc3F)CC2)c(F)c1 (stereo not drawn)
Aspergillus fumigatus
  MIC80: > 64 µg/mL
Candida albicans
  MIC80: 0.0156 µg/mL (≈ 0.0257 µM)
Nannizzia gypsea
  MIC80: 0.25 µg/mL (≈ 0.411 µM)
Cryptococcus neoformans
  MIC80: 1 µg/mL (≈ 1.65 µM)
Trichophyton rubrum
  MIC80: 0.0625 µg/mL (≈ 0.103 µM)
Candida tropicalis
  MIC80: 0.25 µg/mL (≈ 0.411 µM)
Candida parapsilosis
  MIC80: 0.25 µg/mL (≈ 0.411 µM)
Fusarium
  MIC80: 1 µg/mL (≈ 1.65 µM)

## O=C(/C=C/c1ccc(F)cc1)Nc1ccc(N2CCN(CC(O)(Cn3cncn3)c3ccc(F)cc3F)CC2)c(F)c1 (stereo not drawn)
Aspergillus fumigatus
  MIC80: 1 µg/mL (≈ 1.72 µM)
Candida albicans
  MIC80: 0.25 µg/mL (≈ 0.431 µM)
Nannizzia gypsea
  MIC80: 0.25 µg/mL (≈ 0.431 µM)
Cryptococcus neoformans
  MIC80: 0.25 µg/mL (≈ 0.431 µM)
Trichophyton rubrum
  MIC80: 0.0625 µg/mL (≈ 0.108 µM)
Candida tropicalis
  MIC80: 0.0156 µg/mL (≈ 0.0269 µM)
Candida parapsilosis
  MIC80: 0.0156 µg/mL (≈ 0.0269 µM)
Fusarium
  MIC80: 0.25 µg/mL (≈ 0.431 µM)

## O=C(/C=C/c1ccccc1)Nc1ccc(N2CCN(CC(O)(Cn3cncn3)c3ccc(F)cc3F)CC2)c(F)c1 (stereo not drawn)
Aspergillus fumigatus
  MIC80: 1 µg/mL (≈ 1.78 µM)
Candida albicans
  MIC80: 0.25 µg/mL (≈ 0.444 µM)
Nannizzia gypsea
  MIC80: 0.25 µg/mL (≈ 0.444 µM)
Cryptococcus neoformans
  MIC80: 0.0156 µg/mL (≈ 0.0277 µM)
Trichophyton rubrum
  MIC80: 0.0625 µg/mL (≈ 0.111 µM)
Candida tropicalis
  MIC80: 0.0625 µg/mL (≈ 0.111 µM)
Candida parapsilosis
  MIC80: 0.0625 µg/mL (≈ 0.111 µM)
Fusarium
  MIC80: 0.25 µg/mL (≈ 0.444 µM)

## O=C(/C=C/c1ccccc1Cl)Nc1ccc(N2CCN(CC(O)(Cn3cncn3)c3ccc(F)cc3F)CC2)c(F)c1 (stereo not drawn)
Aspergillus fumigatus
  MIC80: 4 µg/mL (≈ 6.7 µM)
Candida albicans
  MIC80: 1 µg/mL (≈ 1.67 µM)
Nannizzia gypsea
  MIC80: 0.25 µg/mL (≈ 0.419 µM)
Cryptococcus neoformans
  MIC80: 1 µg/mL (≈ 1.67 µM)
Trichophyton rubrum
  MIC80: 0.25 µg/mL (≈ 0.419 µM)
Candida tropicalis
  MIC80: 0.25 µg/mL (≈ 0.419 µM)
Candida parapsilosis
  MIC80: 0.25 µg/mL (≈ 0.419 µM)
Fusarium
  MIC80: 1 µg/mL (≈ 1.67 µM)

## O=C(/C=C/c1ccc(F)cc1)Nc1ccc(N2CCN(CC(O)(Cn3cncn3)c3ccc(F)cc3F)CC2)cc1 (stereo not drawn)
Aspergillus fumigatus
  MIC80: 0.0625 µg/mL (≈ 0.111 µM)
Candida albicans
  MIC80: 0.0625 µg/mL (≈ 0.111 µM)
Nannizzia gypsea
  MIC80: 0.0625 µg/mL (≈ 0.111 µM)
Cryptococcus neoformans
  MIC80: 0.25 µg/mL (≈ 0.444 µM)
Trichophyton rubrum
  MIC80: 0.0039 µg/mL (≈ 0.00693 µM)
Candida tropicalis
  MIC80: 0.25 µg/mL (≈ 0.444 µM)
Candida parapsilosis
  MIC80: 0.25 µg/mL (≈ 0.444 µM)
Fusarium
  MIC80: 1 µg/mL (≈ 1.78 µM)

## O=C(/C=C/c1ccc(Cl)c(Cl)c1)Nc1ccc(N2CCN(CC(O)(Cn3cncn3)c3ccc(F)cc3F)CC2)c(F)c1 (stereo not drawn)
Aspergillus fumigatus
  MIC80: 4 µg/mL (≈ 6.33 µM)
Candida albicans
  MIC80: 1 µg/mL (≈ 1.58 µM)
Nannizzia gypsea
  MIC80: 0.25 µg/mL (≈ 0.396 µM)
Cryptococcus neoformans
  MIC80: 1 µg/mL (≈ 1.58 µM)
Trichophyton rubrum
  MIC80: 0.0625 µg/mL (≈ 0.099 µM)
Candida tropicalis
  MIC80: 0.0625 µg/mL (≈ 0.099 µM)
Candida parapsilosis
  MIC80: 0.25 µg/mL (≈ 0.396 µM)
Fusarium
  MIC80: 0.25 µg/mL (≈ 0.396 µM)
